Drawing on PubChem BioAssay (NCI), this text covers TGI for 6 compounds.

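Cells were grown in 96-well plates and exposed to each compound for 48 hours at five concentrations; endpoints were interpolated linearly between bracketing concentrations, or set to the highest concentration if not reached. At the TGI there is no net growth.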

Test systems include SNB-75 CNS; 786-0 renal; UACC-257 melanoma; MDA-N; HOP-62 NSCLC; BT-549 breast; PC-3 prostate; CAKI-1 renal; A498 renal; MDA-MB-231 breast; SF-268 CNS; SW-620 colon; OVCAR-4 ovarian; ACHN renal; SR leukemia; COLO 205 colon; M14 melanoma; OVCAR-8 ovarian.
Common to all, as to test: growth of human tumour cells (NCI), 48 h

As for `COc1cc(/C=C2\N=C(c3ccccc3)N(/N=C/c3cc4cc(C)ccc4nc3Cl)C2=O)cc(OC)c1OC`, the TGI was 61.5 µM with SNB-75 CNS; greater than 100 µM in the assay on 786-0 renal; greater than 100 µM in the assay on UACC-257 melanoma; 48.6 µM in the assay with MDA-N; greater than 100 µM in the assay on HOP-62 NSCLC; greater than 100 µM with BT-549 breast. Besides, the TGI was 54.7 µM with PC-3 prostate; greater than 100 µM in the assay on CAKI-1 renal; greater than 100 µM in the assay on A498 renal; greater than 100 µM in the assay with MDA-MB-231 breast; greater than 100 µM with SF-268 CNS; greater than 100 µM in the assay on SW-620 colon. The TGI with OVCAR-4 ovarian was greater than 100 µM; in the assay on ACHN renal, greater than 100 µM; in the assay with SR leukemia, 57.4 µM; with COLO 205 colon, 63.7 µM; with M14 melanoma, greater than 100 µM; in the assay on OVCAR-8 ovarian, greater than 100 µM.

Regarding `COC(=O)[C@]12CSC[C@H]1C[C@H](c1ccc(N(C)C)cc1)N2`, the TGI in the assay with SNB-75 CNS, in the assay with 786-0 renal, in the assay on UACC-257 melanoma, in the assay with MDA-N, with HOP-62 NSCLC and with BT-549 breast was greater than 100 µM throughout. Further, the TGI with PC-3 prostate, with CAKI-1 renal, in the assay with A498 renal, with MDA-MB-231 breast, with SF-268 CNS and in the assay with SW-620 colon was greater than 100 µM throughout. In addition, the TGI with OVCAR-4 ovarian, in the assay on ACHN renal, in the assay with SR leukemia, in the assay with COLO 205 colon, in the assay with M14 melanoma and in the assay with OVCAR-8 ovarian was greater than 100 µM in each case.

Take `COC(=O)/C(C#N)=C(\Nc1ccccc1)N1CCCCC1`: the TGI with SNB-75 CNS, in the assay with 786-0 renal, in the assay with UACC-257 melanoma, with MDA-N, in the assay with HOP-62 NSCLC and with BT-549 breast was greater than 100 µM throughout. In addition, the TGI with PC-3 prostate, in the assay with CAKI-1 renal, in the assay on A498 renal, in the assay with MDA-MB-231 breast, in the assay with SF-268 CNS and in the assay with SW-620 colon was greater than 100 µM each time. Moreover, the TGI in the assay with OVCAR-4 ovarian, in the assay with ACHN renal, in the assay with SR leukemia, in the assay with COLO 205 colon, with M14 melanoma and with OVCAR-8 ovarian was greater than 100 µM throughout.

Turning to `O=c1[nH]c(=O)n(C2CC(O)C(CO)O2)c2nc3ccc4ccccc4c3nc12` (stereo not drawn), the TGI in the assay with SNB-75 CNS was greater than 100 µM; in the assay with 786-0 renal it was greater than 100 µM; in the assay with UACC-257 melanoma it was greater than 100 µM; in the assay on MDA-N it was greater than 100 µM; in the assay on HOP-62 NSCLC, 98.3 µM; with BT-549 breast it was greater than 100 µM. In addition, the TGI in the assay on PC-3 prostate, in the assay with CAKI-1 renal, with A498 renal, in the assay with MDA-MB-231 breast, in the assay on SF-268 CNS and in the assay on SW-620 colon was greater than 100 µM throughout. The TGI with OVCAR-4 ovarian, with ACHN renal, in the assay with SR leukemia, in the assay with COLO 205 colon, with M14 melanoma and in the assay with OVCAR-8 ovarian was greater than 100 µM throughout.

Take `COC(=O)c1cc(C#N)[nH]c1-c1cccs1`: the TGI in the assay with SNB-75 CNS, in the assay with 786-0 renal, in the assay with UACC-257 melanoma, with MDA-N, in the assay with HOP-62 NSCLC and in the assay on BT-549 breast was greater than 100 µM in each case. Also, the TGI in the assay on PC-3 prostate was greater than 100 µM; in the assay on CAKI-1 renal it was greater than 100 µM; in the assay on A498 renal it was 86 µM; in the assay with MDA-MB-231 breast, greater than 100 µM; with SF-268 CNS, greater than 100 µM; with SW-620 colon, greater than 100 µM. In addition, the TGI in the assay on OVCAR-4 ovarian, in the assay with ACHN renal, in the assay on SR leukemia, in the assay on COLO 205 colon, in the assay on M14 melanoma and with OVCAR-8 ovarian was greater than 100 µM throughout.

On to `C#C[C@]1(O)CC[C@H]2[C@@H]3CCC4=C/C(=N\OCCN5CCCC5)CC[C@]4(C)[C@H]3CC[C@@]21C`, for which the TGI in the assay on SNB-75 CNS amounted to 24.7 µM; in the assay on 786-0 renal, 24.4 µM; in the assay with UACC-257 melanoma, 22.9 µM; with MDA-N, 11.3 µM; in the assay with HOP-62 NSCLC, 26.7 µM; in the assay with BT-549 breast, 43.6 µM. The TGI was 32.6 µM in the assay with PC-3 prostate; 39.1 µM in the assay on CAKI-1 renal; 50.4 µM in the assay on A498 renal; 36.2 µM in the assay on MDA-MB-231 breast; 30.1 µM in the assay with SF-268 CNS; greater than 49.5 µM in the assay with SW-620 colon. The TGI in the assay on OVCAR-4 ovarian is greater than 62.1 µM; in the assay on ACHN renal, 47.2 µM; with SR leukemia, 13.3 µM; in the assay on COLO 205 colon, 43.1 µM; in the assay with M14 melanoma, 22.5 µM; in the assay with OVCAR-8 ovarian it was 40.7 µM.
